Data reported in patent publication US11000571B2 (priority 2016, dated 2021).
Read-outs that look alike come from different tables or passages of the source.

Assays:
[1] = system: cultured neurons and astrocytes; settings: cited from earlier work
[2] = system: intracerebral hemorrhage (“ICH”) mouse model; parameters: species or system C57BL/6J mice; settings: in vivo
[3] = system: MMP-9 (metalloproteinase-9); parameters: species or system C57BL/6J mice; settings: mouse, in vivo

Row | Substance | kill of cultured neurons and astrocytes [1] | behavioral and neurological deficits following induction of ICH (overall) [2] | circling behavior [2] | sensory response component of 28-point scale [2] | neurofunction (pilot studies) ([2]; 16 mg/kg) | sensory response component of 28-point scale ([2]; 16 mg/kg) | sensory response component of 28-point scale ([2]; 32 mg/kg) | MMP9 serum levels [3]
1 | Hemin | 60%-70% |  |  |  |  |  |  | 
2 | PHGGGWGQPHGGGWGQ [SEQ ID NO:3] |  | efficacious at diminishing the behavioral and neurological deficits | exception | improved at statistically significant levels | improved neurofunction | improved at statistically significant levels | improved at statistically significant levels | diminished
